Data set [1] addresses T1, human GLP-1 receptor (Homo sapiens, UniProt P43220).
T1 construct: expressed in transfected cells; host or cells: BHK cells (parent line BHKTS13), clone BHK CRE luc2P hGLP-1R clone #6
In words: In vitro potency, CRE luciferase reporter gene assay, whole BHK cells expressing human GLP-1 receptor. Format: cell-based. As to conditions: 0.2% HSA. Here is the method: (§1) In Vitro Potency (CRE Luciferase; Whole Cells)
(§2) The in vitro potency is the measure of human GIP, GLP-1 or glucagon receptor activation, respectively, in a whole cell assay.
(§3) In vitro potency was determined by measuring the response of the human GIP, GLP-1 or glucagon receptor in a reporter gene assay in individual cell lines. […] When the respective receptor is activated it results in the production of cAMP, which in turn results in the luciferase protein being expressed. When assay incubation is completed the luciferase substrate (luciferin) is added and the enzyme converts luciferin to oxyluciferin to produce bioluminescence. The luminescence is measured as the readout for the assay.
(§4) The cells were derived from a clone containing the CRE luciferase element and were established by further transfection with the respective receptor to obtain the current clone.
(§5) The cells were cultured at 5% CO2 in Cell Culture Medium. They were aliquoted and stored in liquid nitrogen. The cells were kept in passage and were seeded out the day before each assay.
(§6) The Assay Buffer consisted of 1% ovalbumin and 0.1% Pluronic F-68 in Assay Medium with the addition of human serum albumin at twice the indicated concentrations.
(§7) 1) Cells were plated at 5000 cells/well and incubated overnight.
(§8) 2) Cells were washed three times in PBS.
(§9) 3) Assay Medium (50 μl aliquot) with or without serum albumin was added to each well in the assay plate.
(§10) 4) Stocks of the test compounds and reference compounds were diluted to a concentration of 0.2 μM in Assay Buffer. […] 8) The cells were washed three times with PBS plus some liquid in each well. 9) A 100 μl aliquot of steadylite plus reagent was added to each well of the assay plate (reagent was light sensitive). 10) Each assay plate was covered with aluminum foil to protect it from light and shaken for 30 min at room temperature. 11) Each assay plate was read in a microtiter plate reader. Calculations and Results
(§11) The data from the microtiter plate reader was transferred to GraphPad Prism software. […]
(§12) A minimum of two replicates was measured for each sample. […]
Background: In a reporter assay the amount or activity of a reporter protein is the signal.

In data set [2] the target is T2, human GIP receptor (Homo sapiens, UniProt P48546).
T2 construct: expressed in transfected cells; host or cells: BHK cells (parent line BHKTS13), clone BHK CRE luc2P hGIPR clone #5
T2 sequence (P48546 22-466): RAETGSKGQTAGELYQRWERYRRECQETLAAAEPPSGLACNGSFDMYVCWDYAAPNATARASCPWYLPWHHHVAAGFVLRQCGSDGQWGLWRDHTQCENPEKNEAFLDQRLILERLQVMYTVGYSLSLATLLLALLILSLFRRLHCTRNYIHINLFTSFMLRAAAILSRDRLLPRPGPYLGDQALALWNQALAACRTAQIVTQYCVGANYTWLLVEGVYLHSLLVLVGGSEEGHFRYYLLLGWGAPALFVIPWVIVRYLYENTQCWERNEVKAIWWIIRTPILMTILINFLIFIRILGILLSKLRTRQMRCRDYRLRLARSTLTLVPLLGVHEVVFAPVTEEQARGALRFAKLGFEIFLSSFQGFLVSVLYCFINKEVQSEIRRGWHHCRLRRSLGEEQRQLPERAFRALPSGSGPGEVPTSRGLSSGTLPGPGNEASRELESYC
In words: In vitro potency, CRE luciferase reporter gene assay, whole BHK cells expressing human GIP receptor. Format: cell-based. As to conditions: 0.2% HSA. On the procedure:
as §1, §2, §3, §4, §5, §6, §7, §8, §9, §10
The data from the microtiter plate reader was transferred to GraphPad Prism software. The software performs a non-linear regression (log(agonist) vs response).
A minimum of two replicates was measured for each sample. The reported values are averages of the replicates.

Data set [3] has as its target T3, human glucagon receptor (Homo sapiens, UniProt P47871).
T3 construct: expressed in transfected cells; host or cells: BHK cells (parent line BHKTS13), clone BHK CRE luc2P hGCGR clone #18
In words: In vitro potency, CRE luciferase reporter gene assay, whole BHK cells expressing human glucagon receptor. Format: cell-based. As to conditions: 0.2% HSA. Here is the method: as §1, §2, §3, §4, §5, §6, §7, §8, §9, §10, §11, §12

Data set [4] is described as follows: Pharmacokinetic study in minipigs, terminal half-life after i.v. administration. To be noted: female, Göttingen, minipig, plasma, iv, 5 nmol/kg.
Procedure: Pharmacokinetic Study in Minipigs
The purpose of this study is to determine the half-life in vivo of the derivatives of the present invention after i.v. administration to minipigs, i.e. the prolongation of their time in the body and thereby their time of action. This is done in a pharmacokinetic (PK) study, where the terminal half-life of the derivative in question is determined. By terminal half-life is generally meant the period of time it takes to halve a certain plasma concentration, measured after the initial distribution phase.
Female Göttingen minipigs were obtained from Ellegaard Göttingen Minipigs (Dalmose, Denmark) approximately 7-14 months of age and weighing from approximately 16-35 kg were used in the studies. The minipigs were housed individually and fed restrictedly once daily with SDS minipig diet (Special Diets Services, Essex, UK).
After at 3 weeks of acclimatisation two permanent central venous catheters were implanted in vena cava caudalis in each animal. The animals were allowed 1 week recovery after the surgery, and were then used for repeated pharmacokinetic studies with a suitable wash-out period between successive derivative dosing.
Blood samples (for example 0.8 ml) were collected in EDTA buffer (8 mM) and then centrifuged at 4° C. and 1942G for 10 minutes.
Individual plasma concentration-time profiles were analysed by a non-compartmental model in Phoenix WinNonLin ver. […] (Pharsight Inc., Mountain View, Calif., USA), and the resulting terminal half-lives (harmonic mean) determined.

pEC50: −log10 of the molar value. *1 amine or outer side, *2 acyl side, *3 side chain or, on linkers, in order; H or OH if unused. Where no end group is shown, it is not given here. Side-chain parts run from the residue outwards. [ ]: non-standard residue; d: D form. The star is where a group is joined. C18 diacid = O=C(O)CCCCCCCCCCCCCCCCC(=O)*; γGlu = O=C(O)[C@H](CCC(=O)[*:2])N[*:1]; Nle = CCCC[C@H](N)C(=O)O; AEEA = NCCOCCOCC(=O)O; Aib = CC(C)(N)C(=O)O Bounds are passed on as bounds.

T1 sequence (P43220 24-463): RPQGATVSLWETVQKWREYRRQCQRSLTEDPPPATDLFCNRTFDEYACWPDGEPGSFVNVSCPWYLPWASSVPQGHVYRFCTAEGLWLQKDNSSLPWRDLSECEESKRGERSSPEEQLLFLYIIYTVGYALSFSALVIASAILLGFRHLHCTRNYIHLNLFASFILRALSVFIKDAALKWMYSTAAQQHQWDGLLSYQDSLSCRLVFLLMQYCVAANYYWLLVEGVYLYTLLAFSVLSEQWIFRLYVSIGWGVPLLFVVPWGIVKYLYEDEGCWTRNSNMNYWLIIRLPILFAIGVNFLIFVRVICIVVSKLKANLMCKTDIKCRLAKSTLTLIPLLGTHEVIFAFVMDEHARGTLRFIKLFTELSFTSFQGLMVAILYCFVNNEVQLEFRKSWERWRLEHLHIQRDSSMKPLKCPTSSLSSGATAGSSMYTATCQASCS
T3 sequence (P47871 26-477): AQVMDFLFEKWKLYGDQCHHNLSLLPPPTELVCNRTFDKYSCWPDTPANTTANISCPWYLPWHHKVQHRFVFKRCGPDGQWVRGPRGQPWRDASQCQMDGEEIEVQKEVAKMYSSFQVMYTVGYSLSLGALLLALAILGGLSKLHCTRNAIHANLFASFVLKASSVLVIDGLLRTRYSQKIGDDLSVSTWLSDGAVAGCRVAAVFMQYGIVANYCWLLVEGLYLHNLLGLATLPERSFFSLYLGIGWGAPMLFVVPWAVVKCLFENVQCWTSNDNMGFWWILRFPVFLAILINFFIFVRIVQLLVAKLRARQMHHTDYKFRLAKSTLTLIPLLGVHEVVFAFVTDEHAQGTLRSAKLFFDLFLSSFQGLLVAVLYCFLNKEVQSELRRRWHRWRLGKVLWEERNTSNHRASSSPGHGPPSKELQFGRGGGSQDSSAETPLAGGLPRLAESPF

As usually defined, the pEC50 is the negative decadic logarithm of the EC50, by convention in mol/L. Regarding “Y[Aib]EGTFISDYSIA[Nle]DKIHQQDFVK([AEEA-AEEA-γGlu-C18 diacid])WLLAQKGKEDDWKHNITQ [Compound 36, N{Epsilon-24}-[2-[2-[2-[[2-[2-[2-[[(4S)-4-carboxy-4-(17-carboxyheptadecanoylamino)butanoyl]amino]ethoxy]ethoxy]acetyl]amino]ethoxy]ethoxy]acetyl]-[Aib2,Nle14,Lys24,Glu33,Asp34]-hGIP]”, the negative logarithm of the EC50 (pEC50) in data set [1] is below 7.00; in data set [2], 11.22; in data set [3], below 7.00.
Consider “H-Y[Aib]EGTFISDYSIA[Nle]DKIHQQDFVK([γGlu-γGlu-γGlu-C18 diacid])WLLAQKGKEDDWKHNITQ [Compound 39, N{Epsilon-24}-[(4S)-4-carboxy-4-[[(4S)-4-carboxy-4-[[(4S)-4-carboxy-4-(17-carboxyheptadecanoylamino)butanoyl]amino]butanoyl]amino]butanoyl]-[Aib2,Nle14,Lys24,Glu33,Asp34]-hGIP]”, for which the negative logarithm of the EC50 (pEC50) in data set [1] is below 7.00; in data set [2], 11.23; in data set [3] it was below 7.00.
A word on the half-life: it is how long it takes for the measured level to halve. Higher therefore signals slow decline. With `CCCC[C@H](NC(=O)[C@H](C)NC(=O)[C@@H](NC(=O)[C@H](CO)NC(=O)[C@H](Cc1ccc(O)cc1)NC(=O)[C@H](CC(=O)O)NC(=O)[C@H](CO)NC(=O)[C@@H](NC(=O)[C@H](Cc1ccccc1)NC(=O)[C@@H](NC(=O)CNC(=O)[C@H](CCC(=O)O)NC(=O)C(C)(C)NC(=O)[C@@H](N)Cc1ccc(O)cc1)[C@@H](C)O)[C@@H](C)CC)[C@@H](C)CC)C(=O)N[C@@H](CC(=O)O)C(=O)N[C@@H](CCCCN)C(=O)N[C@H](C(=O)N[C@@H](CCCNC(=N)N)C(=O)N[C@@H](CCC(N)=O)C(=O)N[C@@H](CCC(N)=O)C(=O)N[C@@H](CC(=O)O)C(=O)N[C@@H](Cc1ccccc1)C(=O)N[C@H](C(=O)N[C@@H](CCCCNC(=O)CC[C@H](NC(=O)CC[C@H](NC(=O)CC[C@H](NC(=O)C1CCC(CNC(=O)CCCCCCCCCCCCCCCCCCC(=O)O)CC1)C(=O)O)C(=O)O)C(=O)O)C(=O)N[C@@H](Cc1c[nH]c2ccccc12)C(=O)N[C@@H](CC(C)C)C(=O)N[C@@H](CC(C)C)C(=O)N[C@@H](C)C(=O)N[C@@H](CCC(N)=O)C(=O)N[C@@H](CCCCN)C(=O)NCC(=O)O)C(C)C)[C@@H](C)CC` (stereo partly drawn) [Compound 4, N{Epsilon-24}-[(4S)-4-carboxy-4-[[(4S)-4-carboxy-4-[[(4S)-4-carboxy-4-[[4-[(19-carboxynonadecanoylamino)methyl]cyclohexanecarbonyl]amino]butanoyl]amino]butanoyl]amino]butanoyl]-[Aib2,Nle14,Arg18,Lys24]-hGIP(1-31)], the half-life in data set [4] was 124 h. In data set [2], this molecule had a negative logarithm of the EC50 (pEC50) of 10.14.
In the case of “H-Y[Aib]EGTFISDYSIA[Nle]DKIHQQDFVK([γGlu-γGlu-γGlu-C18 diacid])WLLAQKGKEEDWKHNITQ [Compound 38, N{Epsilon-24}-[(4S)-4-carboxy-4-[[(4S)-4-carboxy-4-[[(4S)-4-carboxy-4-(17-carboxyheptadecanoylamino)butanoyl]amino]butanoyl]amino]butanoyl]-[Aib2,Nle14,Lys24,Glu33,Glu34]-hGIP]”, the values for the pEC50 in data set [1], in data set [2] and in data set [3] were below 7.00, 11.05 and below 7.00, respectively.
